Reference: paper PMC3713598, “Renal Protective Role of Xiexin Decoction with Multiple Active Ingredients Involves Inhibition of Inflammation through Downregulation of the Nuclear Factor-κB Pathway in Diabetic Rats” (Evidence-based Complementary and Alternative Medicine : eCAM, 2013)
Where two headings read alike, the source gives them in different places. Blank lines part the entries; values can stand above or below the compound they belong to.

How the values were obtained:
[1] = Pharmacokinetics of XXD ingredients in diabetic rat plasma (LC-MS/MS); format: in vivo; conditions: diabetic rats; for AUC(0-t) / Cmax: male, Sprague-Dawley, rat, po, plasma, mean ± SD n = 8; for AUC(0-t): read-out: AUC0–24 h; for Cmax: read-out: C max
Method: (§1) Male Sprague-Dawley rats (90−100 g) were purchased from the Shanghai Slac Laboratory Animal Co. (Shanghai, China). The rats were housed in an air-conditioned room at 22–24°C under a 12-h dark/light cycle and were given food and water at libitum. All animal experiments were conducted in accordance with the institutional guidelines for the care and use of laboratory animals at Shanghai University of TCM. After 1-week adaptation, animals were divided into a normal control (NC) group fed a standard diet and a high-fat group received a high-fat diet. After 4 weeks, rats on the high-fat diet were treated with streptozotocin (40 mg/kg, intraperitoneal injection). […] In the clinical practice of TCM, XXD is usually prescribed at a daily dose of 46 g of herbal materials (amount to 12 g extract) for diabetic patient. When this human dose was converted into an animal dose (a person of 60 kg, and a conversion factor of 6.25 between human and rat), it was equivalent to the low dose (1.25 g/kg extract) used in this study. NC and DM were treated with vehicle (normal saline) in a matched volume. All the rats were administered the drugs via intragastric gavage (ig) once a day, for 12 weeks.
The rats treated with XXD for 12 weeks were fasted with free access to water for 12 h before the PK experiments. Blood samples were collected before dosing and at 0, 0.25, 0.5, 1, 2, 4, 6, 12, and 24 h following administration. A validated liquid chromatography-tandem mass spectrometry (LC-MS/MS) method was applied to simultaneously determine the concentration of 11 ingredients (coptisine, jatrorrhizine, berberine, palmatine, baicalin, baicalein, wogonoside, wogonin, rhein, emodin, and aloeemodin) in blood plasma. The plasma concentration-time data were analysed by noncompartmental methods with the WinNonLin software package (Pharsight Corporation, Mountain View, CA, USA) to determine PK parameters.

diabetic nephropathy = conditions: cited from earlier work
diabetic mouse kidney = test system: diabetic mouse kidney; set-up: method as in PMID 22483555, PMID 20447389; conditions: cited from earlier work
gut microbes = test system: gut microbes; set-up: method as in PMID 21915347, PMID 22880019; conditions: by regulation of gut microbes; cited from earlier work
diabetic rats [2] = test: Metabolic parameters in diabetic rats (high-fat diet and streptozotocin); format: in vivo, rat; conditions: for Serum triglyceride: DM 1.1 ± 0.6; for Serum cholesterol: DM 1.5 ± 0.2; for HbA1c: DM 7.2 ± 0.3; for FBG: DM 22.3 ± 2.8; for GAUC (area under the blood glucose response curve): DM 117.1 ± 6.4
Method: (§3) After 1-week adaptation, animals were divided into a normal control (NC) group fed a standard diet and a high-fat group received a high-fat diet. After 4 weeks, rats on the high-fat diet were treated with streptozotocin (40 mg/kg, intraperitoneal injection). […] NC and DM were treated with vehicle (normal saline) in a matched volume. All the rats were administered the drugs via intragastric gavage (ig) once a day, for 12 weeks.
At 12 weeks, FBG and area under the blood glucose response curve (GAUC) were measured by glucose oxidase method. HbA1c was determined by HPLC (Biorad, Richmond, CA, USA). Serum creatinine, urine creatinine, serum total cholesterol, and triglyceride levels were measured using an automatic biochemistry analyser (Olympus-2000, Tokyo, Japan). Creatinine clearance was calculated.

diabetic rats [3] = test: Urinary albumin excretion and renal function in diabetic rats; format: in vivo, rat
Method: as §3
At 12 weeks, FBG and area under the blood glucose response curve (GAUC) were measured by glucose oxidase method. HbA1c was determined by HPLC (Biorad, Richmond, CA, USA). Serum creatinine, urine creatinine, serum total cholesterol, and triglyceride levels were measured using an automatic biochemistry analyser (Olympus-2000, Tokyo, Japan). Creatinine clearance was calculated. The kidneys were removed, weighed, and parts of them frozen at −80°C until processing for Western blot and RNA extraction, while other parts were removed for histological examination.

diabetic rats [4] = test: Renal histopathology (PAS) and electron microscopy in diabetic rats; format: in vivo, rat; conditions: XXD 1.25 and 2.5 g/kg, losartan 10 mg/kg, metformin 100 mg/kg ig once a day, 12 weeks; compared with DM
Method: Male Sprague-Dawley rats (90-100 g) were purchased from the Shanghai Slac Laboratory Animal Co. (Shanghai, China). The rats were housed in an air-conditioned room at 22-24°C under a 12-h dark/light cycle and were given food and water at libitum. All animal experiments were conducted in accordance with the institutional guidelines for the care and use of laboratory animals at Shanghai University of TCM. After 1-week adaptation, animals were divided into a normal control (NC) group fed a standard diet and a high-fat group received a high-fat diet. After 4 weeks, rats on the high-fat diet were treated with streptozotocin (40 mg/kg, intraperitoneal injection). All diabetic rats with fasting blood glucose (FBG) levels above 16.7 mmol/L were then randomly divided into 5 groups: diabetic model control (DM); […] In the clinical practice of TCM, XXD is usually prescribed at a daily dose of 46 g of herbal materials (amount to 12 g extract) for diabetic patient. […] The ratio of the mesangial matrix area to glomerular area (M/G) was determined by quantitative Image-Pro Plus software (PAX-it; […], Villa Park, IL, USA). Briefly, 20 glomeruli were randomly selected from each section, and positive signals within the selected glomerulus were highlighted, measured, and quantified as percent positive area of the entire glomerulus. […]

MCP-1 = test: Renal MCP-1 protein and mRNA expression in diabetic rats; format: in vivo, rat; conditions: XXD 1.25 and 2.5 g/kg, losartan 10 mg/kg, metformin 100 mg/kg ig once a day, 12 weeks; compared with DM
Method: as §1, with “rats (90-100” for “rats (90−100”, “at 22-24°C” for “at 22–24°C”, “injection). All diabetic rats with fasting blood glucose (FBG) levels above 16.7 mmol/L were then randomly divided into 5 groups: diabetic model control (DM);” for “injection).”, “study. […] The membrane-bound antibody was detected by incubation with chemiluminescent reagent plus (Perkin Elmer Life Sciences, Boston, MA, USA)” for “study. NC”, “and” for “and DM were treated with vehicle (normal saline) in a matched volume. All”, “the signal captured on X-ray film. […]” for “the rats were administered the drugs via intragastric gavage (ig) once a day, for 12 weeks.”

ICAM-1 = test: Renal ICAM-1 protein and mRNA expression in diabetic rats; format: in vivo, rat; conditions: XXD 1.25 and 2.5 g/kg, losartan 10 mg/kg, metformin 100 mg/kg ig once a day, 12 weeks; compared with DM
Method: as §1, with “rats (90-100” for “rats (90−100”, “at 22-24°C” for “at 22–24°C”, “injection). All diabetic rats with fasting blood glucose (FBG) levels above 16.7 mmol/L were then randomly divided into 5 groups: diabetic model control (DM);” for “injection).”, “study. […] The membrane-bound antibody was detected by incubation with chemiluminescent reagent plus (Perkin Elmer Life Sciences, Boston, MA, USA)” for “study. NC”, “and” for “and DM were treated with vehicle (normal saline) in a matched volume. All”, “the signal captured on X-ray film. […]” for “the rats were administered the drugs via intragastric gavage (ig) once a day, for 12 weeks.”

TNF-α = test: Renal TNF-α level by ELISA in diabetic rats; format: in vivo, rat; conditions: XXD 1.25 and 2.5 g/kg, losartan 10 mg/kg, metformin 100 mg/kg ig once a day, 12 weeks; compared with DM
Method: (§2) Male Sprague-Dawley rats (90-100 g) were purchased from the Shanghai Slac Laboratory Animal Co. (Shanghai, China). The rats were housed in an air-conditioned room at 22-24°C under a 12-h dark/light cycle and were given food and water at libitum. All animal experiments were conducted in accordance with the institutional guidelines for the care and use of laboratory animals at Shanghai University of TCM. After 1-week adaptation, animals were divided into a normal control (NC) group fed a standard diet and a high-fat group received a high-fat diet. After 4 weeks, rats on the high-fat diet were treated with streptozotocin (40 mg/kg, intraperitoneal injection). All diabetic rats with fasting blood glucose (FBG) levels above 16.7 mmol/L were then randomly divided into 5 groups: diabetic model control (DM); […] In the clinical practice of TCM, XXD is usually prescribed at a daily dose of 46 g of herbal materials (amount to 12 g extract) for diabetic patient. When this human dose was converted into an animal dose (a person of 60 kg, and a conversion factor of 6.25 between human and rat), it was equivalent to the low dose (1.25 g/kg extract) used in this study. […] Tumor necrosis factor α (TNF-α), IL-6 and AGEs protein levels in renal tissue were measured using commercial ELISA kits (R&D, Minneapolis, MN, USA) according to the manufacturer's instructions.

IL-6 = test: Renal IL-6 level by ELISA in diabetic rats; format: in vivo, rat; conditions: XXD 1.25 and 2.5 g/kg, losartan 10 mg/kg ig once a day, 12 weeks; compared with DM
Method: as §2

TGF-β1 = test: Renal TGF-β1 protein and mRNA expression in diabetic rats; format: in vivo, rat; conditions: XXD 1.25 and 2.5 g/kg, losartan 10 mg/kg ig once a day, 12 weeks; compared with DM
Method: as §2, with “The membrane-bound antibody was detected by incubation with chemiluminescent reagent plus (Perkin Elmer Life Sciences, Boston, MA, USA)” for “Tumor necrosis factor α (TNF-α), IL-6”, “and” for “and AGEs protein levels in renal tissue were measured using commercial ELISA kits (R&D, Minneapolis, MN, USA) according to”, “signal captured on X-ray film. […]” for “manufacturer's instructions.”

NF-κB signalling pathway = test: Renal NF-κB signalling pathway (western blot, real-time PCR) in diabetic rats; format: in vivo, rat; conditions: XXD 1.25 and 2.5 g/kg, losartan 10 mg/kg ig once a day, 12 weeks; compared with DM
Method: as §2, with “The membrane-bound antibody was detected by incubation with chemiluminescent reagent plus (Perkin Elmer Life Sciences, Boston, MA, USA)” for “Tumor necrosis factor α (TNF-α), IL-6”, “and” for “and AGEs protein levels in renal tissue were measured using commercial ELISA kits (R&D, Minneapolis, MN, USA) according to”, “signal captured on X-ray film. […]” for “manufacturer's instructions.”

AGEs = test: Renal AGEs level by ELISA in diabetic rats; format: in vivo, rat; conditions: XXD 1.25 and 2.5 g/kg, metformin 100 mg/kg ig once a day, 12 weeks; compared with DM
Method: as §1
Tumor necrosis factor α (TNF-α), IL-6 and AGEs protein levels in renal tissue were measured using commercial ELISA kits (R&D, Minneapolis, MN, USA) according to the manufacturer's instructions.

RAGE = test: Renal RAGE expression by western blot in diabetic rats; format: in vivo, rat; conditions: XXD 1.25 and 2.5 g/kg, metformin 100 mg/kg ig once a day, 12 weeks; compared with DM
Method: as §1, with “NC and DM were treated with vehicle (normal saline) in a matched volume. All the rats were administered the drugs via intragastric gavage (ig) once a day, for 12 weeks.” left out
Kidney tissue was homogenized in radioimmunoprecipitation assay buffer containing 0.5% Nonidet P-40, 0.5% sodium deoxycholate, 0.1% SDS, 10 mmol/L EDTA, and protease inhibitors. […] The membrane-bound antibody was detected by incubation with chemiluminescent reagent plus (Perkin Elmer Life Sciences, Boston, MA, USA) and the signal captured on X-ray film. […]

[5] = XXD 1.25 g/kg intragastric gavage for 12 weeks
[6] = XXD 2.5 g/kg intragastric gavage for 12 weeks
[7] = losartan 10 mg/kg ig once a day 12 weeks
[8] = metformin 100 mg/kg ig once a day 12 weeks

shape of plasma concentration-time curve ([1]; after ig administration of XXD for 12 weeks): double peaks | AUC(0-t) [1, 5]: 757 ± 389 ng·h/mL | Cmax [1, 5]: 51 ± 20 ng/mL | AUC(0-t) [1, 6]: 1730 ± 1040 ng·h/mL | Cmax [1, 6]: 118 ± 78 ng/mL
SMILES: COc1ccc2cc3[n+](cc2c1OC)CCc1cc2c(cc1-3)OCO2 [Berberine, berberine]
anti-DN effects (diabetic nephropathy): exhibited anti-DN effects | TGF-β1, ICAM-1, and VCAM-1 protein expression (diabetic mouse kidney): downregulating | renal AGE generation (diabetic mouse kidney): inhibiting | IKBα protein level (diabetic mouse kidney; diabetic mouse kidney): increased | NF-κBp65 protein level (diabetic mouse kidney; diabetic mouse kidney): decreased | blood lipid levels (gut microbes): reduced

SMILES: CCCCc1nc(Cl)c(CO)n1Cc1ccc(-c2ccccc2-c2nn[nH]n2)cc1 [losartan]
Serum triglyceride (diabetic rats [2]; [7]): 0.7 ± 0.3 mmol/L | Serum cholesterol (diabetic rats [2]; [7]): 1.3 ± 0.2 mmol/L | HbA1c (diabetic rats [2]; [7]): 6.9 ± 0.2% | FBG (diabetic rats [2]; [7]): 21.6 ± 4.4 mmol/L | GAUC (area under the blood glucose response curve) (diabetic rats [2]; [7]): 111.8 ± 11.1 mmol·h/L | urinary albumin excretion (UAE) (diabetic rats [3]; XXD 1.25 and 2.5 g/kg, losartan 10 mg/kg, metformin 100 mg/kg ig once a day, 12 weeks, compared with DM): significantly reduced | Kidney weight/body weight (diabetic rats [3]; losartan 10 mg/kg ig once a day 12 weeks, DM 1.18 ± 0.06): 1.00 ± 0.05 % | renal pathological changes (glomerular hypertrophy, mesangial matrix expansion, M/G, basement membrane thickening) (diabetic rats [4]): ameliorated | renal protein and mRNA MCP-1 expression (MCP-1): significantly downregulated | renal protein and mRNA ICAM-1 expression (ICAM-1): significantly downregulated | renal TNF-α level (TNF-α): significantly downregulated | renal IL-6 level (IL-6): significantly downregulated | renal TGF-β1 protein and mRNA expression (TGF-β1): significantly downregulated | renal IKKα, phospho-IκBα, phospho-NF-κBp65, NF-κBp65 and IκBα protein expression changes (NF-κB signalling pathway): significantly ameliorated | renal NF-κBp65 mRNA expression (NF-κB signalling pathway): downregulated

SMILES: CN(C)C(=N)N=C(N)N [metformin]
Serum triglyceride (diabetic rats [2]; [8]): 1.0 ± 0.3 mmol/L | Serum cholesterol (diabetic rats [2]; [8]): 1.2 ± 0.4 mmol/L | HbA1c (diabetic rats [2]; [8]): 6.6 ± 0.5 % | FBG (diabetic rats [2]; [8]): 9.4 ± 2.5 mmol/L | GAUC (area under the blood glucose response curve) (diabetic rats [2]; [8]): 70.9 ± 9.5 mmol·h/L | renal pathological changes (glomerular hypertrophy, mesangial matrix expansion, M/G, basement membrane thickening) (diabetic rats [4]): ameliorated | total renal AGEs content (AGEs): significantly reduced | renal RAGE expression (RAGE): downregulated | renal protein and mRNA MCP-1 expression (MCP-1): significant reduction | renal protein and mRNA ICAM-1 expression (ICAM-1): significant reduction | renal TNF-α level (TNF-α): significant reduction
